The values that follow come from US20240150360A1 (THE REGENTS OF THE UNIVERSITY OF MICHIGAN, priority 2021, published 2024).

Where only a bound is given, the exact number is not on record here.

For orientation: IC50 means the point on the concentration scale where inhibition reaches its midpoint. Usually DC50 stands for the concentration at which degradation of the target reaches its halfway point. A lower DC50 goes with degradation at low concentration.

The test system of assay [1] is 22Rv1 cells. Kind of assay: Cell growth inhibition assay (CellTiter-Glo) in 22Rv1. The format is cell-based, human. Particulars: Homo sapiens, 22Rv1, 96 h, read-out: Cell Growth Inhibition (IC50) 22Rv1. As to the method:
Biological Assays. CBP/p300 degradation activity and cell growth inhibition were evaluated in the human prostate cancer cell line 22Rv1 (ATCC© CRL-2505™) purchased from the American Type Culture Collection (ATCC), Manassas, VA, and maintained and cultured in Dulbecco's Modified Eagle's medium (DMEM) containing 10% fetal bovine serum, 1 unit/ml of penicillin and 1 μg/ml of streptomycin. Cells with 3-8 passages after purchase were used in experiments.
Cell Growth Inhibition Assay Protocol. 22RV1 cells were seeded at a concentration of 4000 cells/well in 100 μl culture medium and 2 μl of test compound (final concentration start from 10 μM and 3 times dilution) into 96 well microplates (Corning 3903). The cell cultures were incubated for 96 h at +37° C. and 5% CO2. The plate and its contents were equilibrated to room temperature for approximately 30 minutes. 100 μl of CellTiter-Glo® 2.0 Reagent equal to the volume of cell culture medium present was added in each well. The contents were mixed for 2 minutes on an orbital shaker. The plate was allowed to incubate at room temperature for 10 minutes. The luminescence was recorded. The data was analyzed by Prism GraphPad 8.
Background: In ATP-based viability assays light output follows the ATP content of the culture.

For assay [2], the system named is HL60. Kind of assay: Cell growth inhibition in HL60. The format is cell-based. To be noted: Homo sapiens, HL-60, read-out: Cell Growth Inhibition (IC50) HL60.
Assay [3] has as its target T1, CBP (Homo sapiens, UniProt Q92793).
T1 construct: endogenous in cells; host or cells: 22Rv1 (ATCC CRL-2505) human prostate cancer cells
Briefly: CBP degradation in 22Rv1 cells (5 h). The format is cell-based. Particulars: 22Rv1 cells, 5 h; for Dmax: 22Rv1, 5 h, read-out: CBP Degradation (22Rv1, 5 h) DCmax. The source says: (§1) Biological Assays. […] Cells with 3-8 passages after purchase were used in experiments.

Assay [4] has as its target T2, P300 (Homo sapiens, UniProt Q09472).
T2 construct: endogenous in cells; host or cells: 22Rv1 (ATCC CRL-2505) human prostate cancer cells
Kind of assay: P300 degradation in 22Rv1 cells (5 h). The format is cell-based. Particulars: 22Rv1 cells, 5 h; for Dmax: read-out: P300 Degradation (22Rv1, 5 h) DCmax.
Source text: as §1

T1 sequence (Q92793 whole entry): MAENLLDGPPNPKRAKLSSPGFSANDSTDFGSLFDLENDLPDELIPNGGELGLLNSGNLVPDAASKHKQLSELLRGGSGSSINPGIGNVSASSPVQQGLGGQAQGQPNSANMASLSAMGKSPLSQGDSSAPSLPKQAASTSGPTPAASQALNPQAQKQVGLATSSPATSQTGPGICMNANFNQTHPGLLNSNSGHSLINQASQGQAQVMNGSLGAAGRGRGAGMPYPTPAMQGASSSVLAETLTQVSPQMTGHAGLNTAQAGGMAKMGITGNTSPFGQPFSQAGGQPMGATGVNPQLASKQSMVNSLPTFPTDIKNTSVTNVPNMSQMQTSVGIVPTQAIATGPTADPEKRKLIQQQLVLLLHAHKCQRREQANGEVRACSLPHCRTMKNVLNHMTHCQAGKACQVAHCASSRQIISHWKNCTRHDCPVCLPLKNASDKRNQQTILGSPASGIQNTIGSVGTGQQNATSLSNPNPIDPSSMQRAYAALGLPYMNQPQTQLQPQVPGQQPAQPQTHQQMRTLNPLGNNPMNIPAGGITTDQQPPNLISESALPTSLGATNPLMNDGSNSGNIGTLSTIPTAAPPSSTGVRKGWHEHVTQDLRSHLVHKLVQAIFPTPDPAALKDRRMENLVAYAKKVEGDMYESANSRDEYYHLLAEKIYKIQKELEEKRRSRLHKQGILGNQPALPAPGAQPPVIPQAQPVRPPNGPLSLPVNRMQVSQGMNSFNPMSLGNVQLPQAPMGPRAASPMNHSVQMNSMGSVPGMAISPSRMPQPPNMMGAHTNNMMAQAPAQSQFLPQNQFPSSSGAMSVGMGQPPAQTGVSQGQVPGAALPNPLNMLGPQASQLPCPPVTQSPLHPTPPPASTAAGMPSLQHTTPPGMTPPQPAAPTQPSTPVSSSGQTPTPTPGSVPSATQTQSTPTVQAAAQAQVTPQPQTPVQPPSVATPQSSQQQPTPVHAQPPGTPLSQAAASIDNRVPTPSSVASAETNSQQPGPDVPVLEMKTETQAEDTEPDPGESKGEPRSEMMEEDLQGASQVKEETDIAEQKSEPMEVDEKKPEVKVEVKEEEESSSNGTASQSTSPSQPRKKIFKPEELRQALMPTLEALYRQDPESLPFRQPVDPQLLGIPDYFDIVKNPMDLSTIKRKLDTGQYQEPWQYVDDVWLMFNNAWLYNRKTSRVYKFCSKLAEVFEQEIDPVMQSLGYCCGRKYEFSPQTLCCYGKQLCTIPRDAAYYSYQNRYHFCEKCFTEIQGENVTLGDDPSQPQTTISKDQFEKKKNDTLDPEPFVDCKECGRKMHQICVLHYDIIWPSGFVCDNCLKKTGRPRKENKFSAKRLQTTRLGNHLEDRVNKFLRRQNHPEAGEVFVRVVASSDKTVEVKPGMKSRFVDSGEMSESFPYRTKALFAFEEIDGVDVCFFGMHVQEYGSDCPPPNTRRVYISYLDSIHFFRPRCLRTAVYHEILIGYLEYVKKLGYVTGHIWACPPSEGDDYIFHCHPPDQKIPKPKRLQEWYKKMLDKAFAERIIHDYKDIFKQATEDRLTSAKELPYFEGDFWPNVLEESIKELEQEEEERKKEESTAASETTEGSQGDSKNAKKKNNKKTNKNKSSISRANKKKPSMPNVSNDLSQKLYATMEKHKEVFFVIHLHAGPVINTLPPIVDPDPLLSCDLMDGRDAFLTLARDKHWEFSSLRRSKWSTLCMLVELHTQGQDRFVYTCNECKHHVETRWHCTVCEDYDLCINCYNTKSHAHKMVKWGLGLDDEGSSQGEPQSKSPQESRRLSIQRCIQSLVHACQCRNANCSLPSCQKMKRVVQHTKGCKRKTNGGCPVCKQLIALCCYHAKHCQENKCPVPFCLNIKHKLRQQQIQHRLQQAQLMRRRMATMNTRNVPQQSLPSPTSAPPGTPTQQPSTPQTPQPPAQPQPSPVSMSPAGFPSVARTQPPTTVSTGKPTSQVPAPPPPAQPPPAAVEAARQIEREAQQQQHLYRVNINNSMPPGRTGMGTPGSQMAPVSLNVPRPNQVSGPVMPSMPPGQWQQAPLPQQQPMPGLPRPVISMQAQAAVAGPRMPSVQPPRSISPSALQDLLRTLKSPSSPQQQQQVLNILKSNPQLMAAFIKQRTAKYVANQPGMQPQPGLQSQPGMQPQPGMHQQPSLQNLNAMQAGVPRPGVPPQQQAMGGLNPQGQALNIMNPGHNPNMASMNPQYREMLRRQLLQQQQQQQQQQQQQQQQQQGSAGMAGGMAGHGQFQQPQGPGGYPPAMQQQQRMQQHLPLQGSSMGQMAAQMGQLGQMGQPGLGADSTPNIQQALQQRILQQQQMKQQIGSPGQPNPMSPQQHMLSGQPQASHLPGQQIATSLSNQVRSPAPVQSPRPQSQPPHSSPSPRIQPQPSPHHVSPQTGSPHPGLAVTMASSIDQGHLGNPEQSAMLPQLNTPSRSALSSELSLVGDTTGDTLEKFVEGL
T2 sequence (Q09472 whole entry): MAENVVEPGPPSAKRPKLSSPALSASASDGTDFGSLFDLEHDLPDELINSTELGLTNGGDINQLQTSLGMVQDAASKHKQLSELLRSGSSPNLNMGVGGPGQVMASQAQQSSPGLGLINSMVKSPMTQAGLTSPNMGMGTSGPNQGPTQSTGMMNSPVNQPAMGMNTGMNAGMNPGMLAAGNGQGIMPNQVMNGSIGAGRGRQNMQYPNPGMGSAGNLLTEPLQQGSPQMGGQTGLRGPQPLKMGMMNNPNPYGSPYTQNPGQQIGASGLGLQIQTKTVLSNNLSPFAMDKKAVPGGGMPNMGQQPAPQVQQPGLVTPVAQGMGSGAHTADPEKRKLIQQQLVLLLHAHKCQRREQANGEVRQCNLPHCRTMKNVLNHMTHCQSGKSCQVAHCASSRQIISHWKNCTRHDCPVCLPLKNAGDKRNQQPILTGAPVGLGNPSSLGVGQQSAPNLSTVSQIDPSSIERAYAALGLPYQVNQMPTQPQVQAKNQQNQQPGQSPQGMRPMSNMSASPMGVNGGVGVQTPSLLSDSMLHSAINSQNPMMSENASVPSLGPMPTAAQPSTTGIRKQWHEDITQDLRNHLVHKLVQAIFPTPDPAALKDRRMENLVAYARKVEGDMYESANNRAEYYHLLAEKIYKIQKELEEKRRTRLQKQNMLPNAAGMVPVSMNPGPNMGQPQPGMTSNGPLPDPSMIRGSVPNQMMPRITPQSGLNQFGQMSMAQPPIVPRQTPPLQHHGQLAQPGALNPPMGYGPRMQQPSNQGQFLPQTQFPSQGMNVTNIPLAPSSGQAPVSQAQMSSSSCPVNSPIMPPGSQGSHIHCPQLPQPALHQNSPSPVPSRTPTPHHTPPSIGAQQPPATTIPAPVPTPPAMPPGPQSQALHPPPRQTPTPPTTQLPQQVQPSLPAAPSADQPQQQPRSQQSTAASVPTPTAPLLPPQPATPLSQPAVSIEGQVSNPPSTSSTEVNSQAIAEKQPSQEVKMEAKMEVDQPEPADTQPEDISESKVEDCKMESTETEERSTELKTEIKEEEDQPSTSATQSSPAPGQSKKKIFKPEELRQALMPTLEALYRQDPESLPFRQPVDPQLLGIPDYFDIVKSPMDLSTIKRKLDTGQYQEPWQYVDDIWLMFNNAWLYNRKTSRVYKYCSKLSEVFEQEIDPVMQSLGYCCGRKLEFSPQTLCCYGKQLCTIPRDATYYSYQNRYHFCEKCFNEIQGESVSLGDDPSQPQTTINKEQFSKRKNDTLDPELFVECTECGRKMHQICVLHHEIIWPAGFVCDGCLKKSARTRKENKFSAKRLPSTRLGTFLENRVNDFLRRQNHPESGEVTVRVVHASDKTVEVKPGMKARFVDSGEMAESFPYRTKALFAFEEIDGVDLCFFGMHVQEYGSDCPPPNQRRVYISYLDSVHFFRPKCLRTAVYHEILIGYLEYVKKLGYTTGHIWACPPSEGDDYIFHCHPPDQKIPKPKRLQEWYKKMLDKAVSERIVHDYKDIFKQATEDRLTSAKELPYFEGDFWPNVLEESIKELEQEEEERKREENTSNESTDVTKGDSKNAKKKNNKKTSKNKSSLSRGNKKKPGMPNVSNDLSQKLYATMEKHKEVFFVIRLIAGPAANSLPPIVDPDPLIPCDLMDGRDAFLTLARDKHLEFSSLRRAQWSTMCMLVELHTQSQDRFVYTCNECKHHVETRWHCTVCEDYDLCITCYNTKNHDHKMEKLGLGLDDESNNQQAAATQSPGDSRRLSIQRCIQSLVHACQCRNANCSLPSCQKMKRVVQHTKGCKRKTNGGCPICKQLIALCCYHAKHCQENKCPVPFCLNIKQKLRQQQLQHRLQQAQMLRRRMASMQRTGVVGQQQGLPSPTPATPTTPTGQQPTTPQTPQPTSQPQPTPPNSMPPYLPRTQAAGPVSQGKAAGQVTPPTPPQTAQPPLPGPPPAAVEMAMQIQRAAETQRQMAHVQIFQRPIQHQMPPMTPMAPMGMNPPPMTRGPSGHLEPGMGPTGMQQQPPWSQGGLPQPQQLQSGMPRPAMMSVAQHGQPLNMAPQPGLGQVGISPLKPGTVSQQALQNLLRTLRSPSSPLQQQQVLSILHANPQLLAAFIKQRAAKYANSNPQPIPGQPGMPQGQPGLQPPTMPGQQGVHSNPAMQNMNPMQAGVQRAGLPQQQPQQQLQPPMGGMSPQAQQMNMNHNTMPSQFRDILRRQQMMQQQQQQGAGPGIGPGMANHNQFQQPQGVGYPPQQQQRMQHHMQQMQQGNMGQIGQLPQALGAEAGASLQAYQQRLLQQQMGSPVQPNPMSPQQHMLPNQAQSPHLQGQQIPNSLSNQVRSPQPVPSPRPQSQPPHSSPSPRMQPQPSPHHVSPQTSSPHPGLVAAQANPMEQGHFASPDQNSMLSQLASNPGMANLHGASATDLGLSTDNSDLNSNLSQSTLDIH

Regarding `CC(=O)N1CCc2c(c(N3CCCc4cc(-c5cnn(C)c5)c(C(F)F)cc43)nn2C[C@H]2CC[C@H](N3Cc4cc5c(cc4C3)C(=O)N(C3CCC(=O)NC3=O)C5=O)CC2)C1` (relative stereo) [CP-039, 6-(-4-((5-acetyl-3-(7-(difluoromethyl)-6-(1-methyl-1H-pyrazol-4-yl)-3,4-dihydroquinolin-1(2H)-yl)-4,5,6,7-tetrahydro-1H-pyrazolo[4,3-c]pyridin-1-yl)methyl)cyclohexyl)-2-(2,6-dioxopiperidin-3-yl)-6,7-dihydropyrrolo[3,4-f]isoindole-1,3(2H,5H)-dione], the IC50 is less than 1000 nM in assay [1] and less than 100 nM in assay [2].
For `CC(=O)N1CCc2c(c(N3CCCc4cc(-c5cnn(C)c5)c(C(F)F)cc43)nn2[C@H]2CC[C@@H](CN3Cc4cc5c(cc4C3)C(=O)N(C3CCC(=O)NC3=O)C5=O)CC2)C1` (relative stereo) [CP-046, 6-((4-(5-acetyl-3-(7-(difluoromethyl)-6-(1-methyl-1H-pyrazol-4-yl)-3,4-dihydroquinolin-1(2H)-yl)-4,5,6,7-tetrahydro-1H-pyrazolo[4,3-c]pyridin-1-yl)cyclohexyl)methyl)-2-(2,6-dioxopiperidin-3-yl)-6,7-dihydropyrrolo[3,4-f]isoindole-1,3(2H,5H)-dione], the IC50 in assay [1] and in assay [2] was less than 100 nM in each case.
Consider `CC(=O)N1CCc2c(c(N3CCCc4cc(-c5cnn(C)c5)c(C(F)F)cc43)nn2C2CCN(C(=O)CN3Cc4cc5c(cc4C3)C(=O)N(C3CCC(=O)NC3=O)C5=O)CC2)C1` (centres unmarked) [CP-005, 6-(2-(4-(5-acetyl-3-(7-(difluoromethyl)-6-(1-methyl-1H-pyrazol-4-yl)-3,4-dihydroquinolin-1(2H)-yl)-4,5,6,7-tetrahydro-1H-pyrazolo[4,3-c]pyridin-1-yl)piperidin-1-yl)-2-oxoethyl)-2-(2,6-dioxopiperidin-3-yl)-6,7-dihydropyrrolo[3,4-f]isoindole-1,3(2H,5H)-dione], for which the IC50 in assay [1] and in assay [2] was less than 100 nM throughout.
In the case of `CC(=O)N1CCc2c(c(N3CCCc4cc(-c5cnn(C)c5)c(C(F)F)cc43)nn2C2CCC(N3Cc4cc5c(cc4C3)C(=O)N(C3CCC(=O)NC3=O)C5=O)CC2)C1` (centres unmarked) [CP-037, 6-(4-(5-acetyl-3-(7-(difluoromethyl)-6-(1-methyl-1H-pyrazol-4-yl)-3,4-dihydroquinolin-1(2H)-yl)-4,5,6,7-tetrahydro-1H-pyrazolo[4,3-c]pyridin-1-yl)cyclohexyl)-2-(2,6-dioxopiperidin-3-yl)-6,7-dihydropyrrolo[3,4-f]isoindole-1,3(2H,5H)-dione], the half-inhibitory concentration (IC50) in assay [1] and in assay [2] was less than 100 nM throughout.
Turning to `CC(=O)N1CCc2c(c(N3CCCc4cc(-c5cnn(C)c5)c(C(F)F)cc43)nn2C[C@H]2CC[C@@H](N3Cc4cc5c(cc4C3)C(=O)N(C3CCC(=O)NC3=O)C5=O)CC2)C1` (some centres unmarked) [CP-040, 6-(4-((5-acetyl-3-(7-(difluoromethyl)-6-(1-methyl-1H-pyrazol-4-yl)-3,4-dihydroquinolin-1(2H)-yl)-4,5,6,7-tetrahydro-1H-pyrazolo[4,3-c]pyridin-1-yl)methyl)cyclohexyl)-2-(2,6-dioxopiperidin-3-yl)-6,7-dihydropyrrolo[3,4-f]isoindole-1,3(2H,5H)-dione], the IC50 in assay [1] is less than 1000 nM; in assay [2] it was less than 100 nM.
For the molecule `CC(=O)N1CCc2c(c(N3CCCc4cc(-c5cnn(C)c5)c(C(F)F)cc43)nn2C[C@H]2CC[C@H](CN3Cc4cc5c(cc4C3)C(=O)N(C3CCC(=O)NC3=O)C5=O)CC2)C1` (some centres unmarked) [CP-043, 6-((4-((5-acetyl-3-(7-(difluoromethyl)-6-(1-methyl-1H-pyrazol-4-yl)-3,4-dihydroquinolin-1(2H)-yl)-4,5,6,7-tetrahydro-1H-pyrazolo[4,3-c]pyridin-1-yl)methyl)cyclohexyl)methyl)-2-(2,6-dioxopiperidin-3-yl)-6,7-dihydropyrrolo[3,4-f]isoindole-1,3(2H,5H)-dione], the IC50 in assay [1] was less than 10000 nM; in assay [2] it was less than 1000 nM.
Consider `CC(=O)N1CCc2c(c(N3CCCc4cc(-c5cnn(C)c5)c(C(F)F)cc43)nn2C2CCC(CCN3Cc4cc5c(cc4C3)C(=O)N(C3CCC(=O)NC3=O)C5=O)CC2)C1` (centres unmarked) [CP-044, 6-(2-(4-(5-acetyl-3-(7-(difluoromethyl)-6-(1-methyl-1H-pyrazol-4-yl)-3,4-dihydroquinolin-1(2H)-yl)-4,5,6,7-tetrahydro-1H-pyrazolo[4,3-c]pyridin-1-yl)cyclohexyl)ethyl)-2-(2,6-dioxopiperidin-3-yl)-6,7-dihydropyrrolo[3,4-f]isoindole-1,3(2H,5H)-dione], for which the IC50 in assay [1] and in assay [2] was less than 100 nM throughout.
On to `CC(=O)N1CCc2c(c(N3CCCc4cc(-c5cnn(C)c5)c(C(F)F)cc43)nn2[C@H]2CC[C@H](CN3Cc4cc5c(cc4C3)C(=O)N(C3CCC(=O)NC3=O)C5=O)CC2)C1` (some centres unmarked) [CP-047, 6-((4-(5-acetyl-3-(7-(difluoromethyl)-6-(1-methyl-1H-pyrazol-4-yl)-3,4-dihydroquinolin-1(2H)-yl)-4,5,6,7-tetrahydro-1H-pyrazolo[4,3-c]pyridin-1-yl)cyclohexyl)methyl)-2-(2,6-dioxopiperidin-3-yl)-6,7-dihydropyrrolo[3,4-f]isoindole-1,3(2H,5H)-dione], for which the IC50 in assay [1] and in assay [2] was less than 100 nM throughout.
As to `CC(=O)N1CCc2c(c(N3CCCc4cc(-c5cnn(C)c5)c(C(F)F)cc43)nn2C2CCC(N3CC4(Cc5cc6c(cc5C4)C(=O)N(C4CCC(=O)NC4=O)C6=O)C3)CC2)C1` (centres unmarked) [CP-086, 1-(4-(5-acetyl-3-(7-(difluoromethyl)-6-(1-methyl-1H-pyrazol-4-yl)-3,4-dihydroquinolin-1(2H)-yl)-4,5,6,7-tetrahydro-1H-pyrazolo[4,3-c]pyridin-1-yl)cyclohexyl)-2′-(2,6-dioxopiperidin-3-yl)-5′,7′-dihydro-1′H-spiro[azetidine-3,6′-cyclopenta[f]isoindole]-1′,3′(2′H)-dione], in assay [3], the Dmax is greater than 70% and the DC50 was less than 10 nM. In assay [4], the half-maximal degradation concentration (DC50) is less than 10 nM and the Dmax was greater than 70%.
Take `CC(=O)N1CCc2c(c(N3CCCc4cc(-c5cnn(C)c5)c(C(F)F)cc43)nn2C2CCC(N3CCc4ccc5c(c4C3)C(=O)N(C3CCC(=O)NC3=O)C5=O)CC2)C1` (centres unmarked) [CP-087, 8-((1r,4r)-4-(5-acetyl-3-(7-(difluoromethyl)-6-(1-methyl-1H-pyrazol-4-yl)-3,4-dihydroquinolin-1(2H)-yl)-4,5,6,7-tetrahydro-1H-pyrazolo[4,3-c]pyridin-1-yl)cyclohexyl)-2-(2,6-dioxopiperidin-3-yl)-6,7,8,9-tetrahydro-1H-pyrrolo[3,4-h]isoquinoline-1,3(2H)-dione]: in assay [3], the Dmax is less than 50% and the DC50 is greater than 1000 nM. In assay [4], the DC50 was greater than 1000 nM and the Dmax is less than 50%.
For `CC(=O)N1CCc2c(c(N3CCCc4cc(-c5cnn(C)c5)c(C(F)F)cc43)nn2[C@H]2CC[C@H](CN3CC4(Cc5cc6c(cc5C4)C(=O)N(C4CCC(=O)NC4=O)C6=O)C3)CC2)C1` (some centres unmarked) [CP-088, 1-(((1r,4r)-4-(5-acetyl-3-(7-(difluoromethyl)-6-(1-methyl-1H-pyrazol-4-yl)-3,4-dihydroquinolin-1(2H)-yl)-4,5,6,7-tetrahydro-1H-pyrazolo[4,3-c]pyridin-1-yl)cyclohexyl)methyl)-2′-(2,6-dioxopiperidin-3-yl)-5′,7′-dihydro-1′H-spiro[azetidine-3,6′-cyclopenta[f]isoindole]-1′,3′(2′H)-dione], in assay [3], the Dmax was greater than 70% and the DC50 is less than 10 nM. Moreover, in assay [4], the half-maximal degradation concentration (DC50) was less than 10 nM and the Dmax was greater than 70%.
As to `CC(=O)N1CCc2c(c(N3CCCc4cc(-c5cnn(C)c5)c(C(F)F)cc43)nn2[C@H]2CC[C@H](CN3CCc4ccc5c(c4C3)C(=O)N(C3CCC(=O)NC3=O)C5=O)CC2)C1` (some centres unmarked) [CP-089, 8-(((1r,4r)-4-(5-acetyl-3-(7-(difluoromethyl)-6-(1-methyl-1H-pyrazol-4-yl)-3,4-dihydroquinolin-1(2H)-yl)-4,5,6,7-tetrahydro-1H-pyrazolo[4,3-c]pyridin-1-yl)cyclohexyl)methyl)-2-(2,6-dioxopiperidin-3-yl)-6,7,8,9-tetrahydro-1H-pyrrolo[3,4-h]isoquinoline-1,3(2H)-dione], the Dmax in assay [3] and in assay [4] was less than 50% each time. The half-maximal degradation concentration (DC50) in assay [3] and in assay [4] was greater than 1000 nM throughout.
